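Values below derive from 48-hour exposures of cells grown in 96-well plates, with endpoints linearly interpolated between the two concentrations bracketing the appropriate inhibition level. At the GI50, growth is halved. TGI: concentration producing complete growth inhibition.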
Experiments:
Assay in all cases: NCI tumour cell line growth inhibition, 48 h
MDA-MB-435 = test system: MDA-MB-435
SN12C renal = test system: SN12C renal
NCI-H460 lung = test system: NCI-H460 lung
M14 melanoma = test system: M14 melanoma
HOP-62 NSCLC = test system: HOP-62 NSCLC
SW-620 colon = test system: SW-620 colon
MALME-3M melanoma = test system: MALME-3M melanoma
HS 578T breast = test system: HS 578T breast
PC-3 prostate = test system: PC-3 prostate
MOLT-4 leukemia = test system: MOLT-4 leukemia
HT29 colon = test system: HT29 colon
HCT-15 colon = test system: HCT-15 colon
NCI-H23 lung = test system: NCI-H23 lung
OVCAR-5 ovarian = test system: OVCAR-5 ovarian
786-0 renal = test system: 786-0 renal
HOP-92 NSCLC = test system: HOP-92 NSCLC
EKVX NSCLC = test system: EKVX NSCLC
LOX IMVI melanoma = test system: LOX IMVI melanoma
RPMI-8226 leukemia = test system: RPMI-8226 leukemia
HCT-116 colon = test system: HCT-116 colon
OVCAR-3 ovarian = test system: OVCAR-3 ovarian
SK-OV-3 ovarian = test system: SK-OV-3 ovarian
TK-10 renal = test system: TK-10 renal
K-562 leukemia = test system: K-562 leukemia
MCF7 breast = test system: MCF7 breast
BT-549 breast = test system: BT-549 breast
NCI-H522 lung = test system: NCI-H522 lung
HCC-2998 colon = test system: HCC-2998 colon
SNB-19 CNS = test system: SNB-19 CNS
MDA-MB-231 breast = test system: MDA-MB-231 breast
DU-145 prostate = test system: DU-145 prostate
SF-295 CNS = test system: SF-295 CNS
SR leukemia = test system: SR leukemia
U251 CNS = test system: U251 CNS
A498 renal = test system: A498 renal
RXF 393 renal = test system: RXF 393 renal
NCI-H226 lung = test system: NCI-H226 lung
KM12 colon = test system: KM12 colon
SNB-75 CNS = test system: SNB-75 CNS
T-47D breast = test system: T-47D breast
SF-268 CNS = test system: SF-268 CNS
OVCAR-4 ovarian = test system: OVCAR-4 ovarian
A549 NSCLC = test system: A549 NSCLC
CAKI-1 renal = test system: CAKI-1 renal
UACC-62 melanoma = test system: UACC-62 melanoma
HL-60(TB) leukemia = test system: HL-60(TB) leukemia
NCI/ADR-RES ovarian = test system: NCI/ADR-RES ovarian
SK-MEL-28 melanoma = test system: SK-MEL-28 melanoma
SK-MEL-5 melanoma = test system: SK-MEL-5 melanoma
COLO 205 colon = test system: COLO 205 colon
UO-31 renal = test system: UO-31 renal
UACC-257 melanoma = test system: UACC-257 melanoma
CCRF-CEM leukemia = test system: CCRF-CEM leukemia
ACHN renal = test system: ACHN renal
SF-539 CNS = test system: SF-539 CNS
SK-MEL-2 melanoma = test system: SK-MEL-2 melanoma
IGROV1 ovarian = test system: IGROV1 ovarian
OVCAR-8 ovarian = test system: OVCAR-8 ovarian
MDA-MB-468 breast = test system: MDA-MB-468 breast

C#C[C@]1(O)CC[C@H]2[C@@H]3CC=C4c5sc(Nc6ccc(N(C)C)cc6)nc5CC[C@]4(C)[C@H]3CC[C@@]21C
GI50 (MDA-MB-435): 1660 nM
TGI (MDA-MB-435): 7370 nM
GI50 (SN12C renal): 2630 nM
TGI (SN12C renal): 7840 nM
GI50 (NCI-H460 lung): 1440 nM
TGI (NCI-H460 lung): 5610 nM
GI50 (M14 melanoma): 1040 nM
TGI (M14 melanoma): 4510 nM
GI50 (HOP-62 NSCLC): 1890 nM
TGI (HOP-62 NSCLC): 7380 nM
GI50 (SW-620 colon): 1100 nM
TGI (SW-620 colon): 3470 nM
GI50 (MALME-3M melanoma): 858 nM
TGI (MALME-3M melanoma): 2900 nM
GI50 (HS 578T breast): 417 nM
TGI (HS 578T breast): 3980 nM
GI50 (PC-3 prostate): 999 nM
TGI (PC-3 prostate): 9290 nM
GI50 (MOLT-4 leukemia): 374 nM
TGI (MOLT-4 leukemia): 5530 nM
GI50 (HT29 colon): 1660 nM
TGI (HT29 colon): 4300 nM
GI50 (HCT-15 colon): 791 nM
TGI (HCT-15 colon): 2670 nM
GI50 (NCI-H23 lung): 1330 nM
TGI (NCI-H23 lung): 5140 nM
GI50 (OVCAR-5 ovarian): 2410 nM
TGI (OVCAR-5 ovarian): 8220 nM
GI50 (786-0 renal): 647 nM
TGI (786-0 renal): 5340 nM
GI50 (HOP-92 NSCLC): 2650 nM
TGI (HOP-92 NSCLC): 17800 nM
GI50 (EKVX NSCLC): 1590 nM
TGI (EKVX NSCLC): 6490 nM
GI50 (LOX IMVI melanoma): 923 nM
TGI (LOX IMVI melanoma): 2410 nM
GI50 (RPMI-8226 leukemia): 248 nM
TGI (RPMI-8226 leukemia): 2200 nM
GI50 (HCT-116 colon): 1010 nM
TGI (HCT-116 colon): 3930 nM
GI50 (OVCAR-3 ovarian): 2300 nM
TGI (OVCAR-3 ovarian): 7190 nM
GI50 (SK-OV-3 ovarian): 1350 nM
TGI (SK-OV-3 ovarian): 3690 nM
GI50 (TK-10 renal): 7560 nM
TGI (TK-10 renal): 33300 nM
GI50 (K-562 leukemia): 1860 nM
TGI (K-562 leukemia): 15800 nM
GI50 (MCF7 breast): 948 nM
TGI (MCF7 breast): 4210 nM
GI50 (BT-549 breast): 642 nM
TGI (BT-549 breast): 3070 nM
GI50 (NCI-H522 lung): 1490 nM
TGI (NCI-H522 lung): 3250 nM
GI50 (HCC-2998 colon): 3230 nM
TGI (HCC-2998 colon): 7820 nM
GI50 (SNB-19 CNS): 1490 nM
TGI (SNB-19 CNS): 6010 nM
GI50 (MDA-MB-231 breast): 1270 nM
TGI (MDA-MB-231 breast): 3330 nM
GI50 (DU-145 prostate): 2550 nM
TGI (DU-145 prostate): 10800 nM
GI50 (SF-295 CNS): 225 nM
TGI (SF-295 CNS): 557 nM
GI50 (SR leukemia): 567 nM
TGI (SR leukemia): 20100 nM
GI50 (U251 CNS): 735 nM
TGI (U251 CNS): 4440 nM
GI50 (A498 renal): 1880 nM
TGI (A498 renal): 4180 nM
GI50 (RXF 393 renal): 190 nM
TGI (RXF 393 renal): 715 nM
GI50 (NCI-H226 lung): 2410 nM
TGI (NCI-H226 lung): 10900 nM
GI50 (KM12 colon): 2150 nM
TGI (KM12 colon): 7110 nM
GI50 (SNB-75 CNS): 1290 nM
TGI (SNB-75 CNS): 6320 nM
GI50 (T-47D breast): 2640 nM
TGI (T-47D breast): 15100 nM
GI50 (SF-268 CNS): 1870 nM
TGI (SF-268 CNS): 10600 nM
GI50 (OVCAR-4 ovarian): 2540 nM
GI50 (A549 NSCLC): 2500 nM
TGI (A549 NSCLC): 12500 nM
GI50 (CAKI-1 renal): 1740 nM
TGI (CAKI-1 renal): > 23600 nM
GI50 (UACC-62 melanoma): 1270 nM
TGI (UACC-62 melanoma): 3010 nM
GI50 (HL-60(TB) leukemia): 2400 nM
TGI (HL-60(TB) leukemia): 12300 nM
GI50 (NCI/ADR-RES ovarian): 2540 nM
TGI (NCI/ADR-RES ovarian): 10700 nM
GI50 (SK-MEL-28 melanoma): 651 nM
TGI (SK-MEL-28 melanoma): 1880 nM
GI50 (SK-MEL-5 melanoma): 1490 nM
TGI (SK-MEL-5 melanoma): 2920 nM
GI50 (COLO 205 colon): 2620 nM
TGI (COLO 205 colon): 6820 nM
GI50 (UO-31 renal): 1500 nM
TGI (UO-31 renal): 5210 nM
GI50 (UACC-257 melanoma): 2010 nM
TGI (UACC-257 melanoma): 6690 nM
GI50 (CCRF-CEM leukemia): 812 nM
TGI (CCRF-CEM leukemia): > 86600 nM
GI50 (ACHN renal): 2240 nM
TGI (ACHN renal): 10800 nM
GI50 (SF-539 CNS): 284 nM
TGI (SF-539 CNS): 1250 nM
GI50 (SK-MEL-2 melanoma): 1460 nM
TGI (SK-MEL-2 melanoma): 4320 nM
GI50 (IGROV1 ovarian): 3220 nM
TGI (IGROV1 ovarian): 10100 nM
GI50 (OVCAR-8 ovarian): 2990 nM
TGI (OVCAR-8 ovarian): 11000 nM
GI50 (MDA-MB-468 breast): 1510 nM
TGI (MDA-MB-468 breast): 4360 nM

— PubChem BioAssay (NCI)
